The text below walks through data of patent publication US11752169B2, “Treatment of pain with polysulfated polysaccharides” (PARADIGM BIOPHARMACEUTICALS LTD., priority 2018, dated 2023).

One experiment has as its system IL-6 mRNA. In words: real-time RT-PCR for IL-6 mRNA in KOA osteocyte-like cultures. The class given is cell-based, human. The conditions noted are these: PPS 1 μg/mL + rhTNFα 1 ng/mL, 48 h (FIG. 17). How it is done:
Cryopreserved cells from each donor (all at passage 0 or 1) were thawed and cultured for 10d in T75 cm^2 tissue culture flasks. Once confluent, cells were removed by collagenase/dispase digestion, washed by centrifugation, counted and adjusted to 5×10^5 cells/mL. Cells were then seeded into either 12-well tissue culture trays or into 8-well chamber slides, at 1×10^5 and 2×10^4 cells/well, respectively. After 24 h, media were replaced with osteogenic differentiation medium, consisting of αMEM, 5% v/v foetal calf serum (FCS), 1.8 mM potassium dihydrogen phosphate (KH2PO4), 100 μM Ascorbate-2-phosphate (As2P), 10 mM HEPES, 10^−8 M Dexamethasone and 0.2 mM L-Glutamine. During the differentiation process, samples were collected at days 3, 14 and 28 in Trizol reagent for total RNA preparation and gene expression analysis (see below). […]
Following three days of pre-treatment of osteocyte-like cultures with PPS and a further 48 h treatment period, total RNA was isolated for the purposes of analysing gene expression using real-time RT-PCR. While the quality of the RNA isolated from all cultures appeared to be high, as adjudged by Nanodrop micro-spectrophotometry showing the ratio of absorbance at 260 nm/280 nm generally being between 1.9 and 2.0, there was a consistent inability to generate complementary DNA (cDNA) from any samples exposed to 5 or 50 μg/mL PPS, except in one or two samples. […]
(In general: Real-time PCR tracks product formation cycle by cycle.)

Another experiment relates to MMP13. In words: MMP13 immunostaining / confocal microscopy of KOA osteocyte-like cultures. The class given is cell-based, human. Particulars: KOA2 cells, rhTNFα + PPS 50 μg/mL (FIG. 21). How it is done:
FIG. 21. The effect of PPS treatment on basal and TNFα-induced MMP13 expression in human KOA osteocyte-like cultures. Confocal microscopy imaging of immunostaining of KOA2 cells untreated stained with isotype control primary antibody or mouse anti-human anti-MMP13 antibody (top row), or treated with rhTNFα alone or rhTNFα+PPS (50 μg/mL) and stained for MMP13 (green staining). All nuclei are stained with DAPI (blue). A) Isotype IgG control; B) Untreated; anti-MMP13; C) rhTNF-α-treated; anti-MMP13; and D) rhTNFa+PPS50; anti-MMP13.
Cell seeded in 8-well chamber slides and differentiated for 28 days or freshly digested from bone were either untreated or treated with rhTNFα (1 ng/mL), PPS (50 μg/mL; ‘PPS50’) or PPS50+rhTNFα. Following differentiation, medium was removed and all wells rinsed with PBS (pH 7.4, Gibco) a total of three times. Cells were then fixed with 100 μL of Histochoice (Sigma-Aldrich) tissue fixative for 1 hour at room temperature. After fixation, wells were rinsed twice with distilled H2O and stored at 4° C. until staining. Cells were blocked with 50 μL of blocking buffer (5% v/v normal rabbit serum in 1×PBS) for 20 minutes at room temperature in a humid chamber. Cells were then rinsed with wash buffer (0.1% v/v normal rabbit serum in PBS) three times. […]

As to Sodium Pentosan Polysulfate [PPS], the “effect of rhTNFα on IL-6 mRNA expression” value in the experiment on IL-6 mRNA was “inhibited”. Further, the “inhibition of rhTNFα-induced MMP13 at the protein level (immunostaining)” value in the experiment with MMP13 is “confirmed”.
